Test results reported in patent US20040038861A1, “Methods and compositions for normalizing lipid levels in mammalian tissues” (priority 2001, published 2004).

Experiments:
soleus muscle [1] = test: Individual free fatty acids by gas chromatography in soleus muscle of rats fed high fat diets; design: species or system rat; conditions: 1 hour, GC
Excerpt: (§1) High-fatted rats. Groups of male Wistar rats (n=21/diet) were ad libitum fed high-fat diets containing standard rat chow to which 40% (w/w) of lard, corn oil or olive oil had been added, from the time of weaning (age=21 d) until sacrifice at 50 d. Triacylglycerol from lard contains predominantly saturated fatty acids; that from corn oil […], see Table 4.
(§2) Soleus muscle tissue isolation and incuhation.Immersion and incubation media was Krebs-Henseleit buffer (KHB) containing 118.5 mM NaCl, 4.75 mM KCl, 1.18 mM MgSO4.7H2O and KH2PO4, 24.8 mM NaHCO3, 2.54 mM CaCl2 and 10 mM d-glucose. The medium was gassed continuously with 95% O2/5% CO2. […] Soleus muscles of both legs were excised keeping the tissue immersed in KHB; muscles were separated into two equal parts and transferred to the incubation flasks. At the completion of incubation the muscles were snap frozen in liquid nitrogen, and then trimmed of connective tissue and all visible fat. The muscle strips were stored at −80° C. until analysis.
(§3) Lipid extraction and chromatographic separation of fatty acids. Total lipids were extracted from muscle strips by a modified version of the method of Bligh and Dyer (Gorski et al., 1988, Mol & Cell Biochem 178:113-118; 1. Bligh et al., 1959, Can J Biochem Physiol 37: 911-917). Muscles were homogenised (Soniprep 150) in 0.4 ml of deionised water. Solvent volumes used herein were varied according to the water content of the muscle (ie muscle weight) as described (Bligh & Dyer, supra). 2 vols of methanol containing 0.005% butylated hydroxy toluene (BHT) and 1 vol chloroform were added to the muscle suspension. Homogenates were vortexed at maximum speed for 2 minutes and centrifuged at 2,500 g for 4 minutes. Supernatants were recovered and pellets re-extracted with 2 vol methanol, 1 vol chloroform and 0.8 vol 0.2 N HCl. Residues were vortexed for 2 min then centrifuged at 3,500 g for 3 min. After centrifugation the combined supernatants were diluted with 2v each of milli Q water and chloroform and the phases separated by centrifugation at 3,500 g for 4 minutes. The lower chloroform phase was recovered, neutralised by dropwise addition of 0.2 N methanolic NH4OH and evaporated down in a stream of N2. The samples were stored at −80° C. until required.
(§4) Aminopropyl phase (250 mg) was packed into 16 ml teflon columns with teflon frits placed at the top and bottom of the bonded phase. Columns were placed in a Vac Elut apparatus and washed twice with 2 ml portions of hexane (Prasad et al., 1988, J Chromato 428: 221-228; Kaluzny et al., 1985, J Lipid Res 26: 135-140). The dry lipid samples were taken up in two 0.150 ml portions of chloroform and applied to the column under atmospheric pressure. After adsorption the neutral lipids were eluted with 4 ml of chloroform-2-propanol (2:1, v/v) and the free fatty acids eluted with 4 ml of 2% acetic acid in diethyl ether. The solvent containing the free fatty acids was dried under a stream of N2.
Gas-liquid chromatographic analysis. Dry free fatty acid residues were processed for derivatisation of methyl esters by the boron trifluoride-methanol method (Prasad, supra). 1 ml of boron trifluoride in methanol (BF3) was added to each sample, the sample vials were heated at 70° C. for 5 minutes, shaken vigorously, and baked for a further 10 minutes. Once the samples reached room temperature 0.5 ml milli Q water was added, the sample vials shaken, 0.1 ml heptane was added and the sample shaken again. 0.05 ml of the top heptane layer was removed for GLC analysis. A Model HP5890 Plus Series 2 (Hewlett-Packard) gas chromatograph equipped with a DB-225 column was used to separate the methyl esters of the fatty acids and a Model HP 5890 GC with a Model HP 5973 MS (Hewlett-Packard) GC/MS used to confirm the identity of individual free fatty acids. […]

soleus muscle [2] = test: Lipid metabolites (free fatty acid, glycerol, triglyceride; enzymatic analysis) in isolated soleus muscle from normally fed rats; assay type: cell-based, rat
soleus muscle [3] = test: Triglyceride and free fatty acid content (enzymatic) in isolated soleus muscle of rats fed high fat diets; assay type: cell-based, rat; conditions: 1 h
Excerpt: as §1, §2, §3, §4
Determination of tissue free fatty acids and triacylglycerol concentration by enzymatic analyses. Free fatty acids were separated from total lipid, evaporated under a stream of N2 and stored at −80° C. until analysis. Samples were dissolved in 50 μl of warm ethanol (35-40° C.), and 0.625 ml of a Triton X-100 (6% w/v) solution was added once the ethanol reached room temperature. The solution was stirred for 30 min, then made up to 0.825 ml with the Triton solution. Free fatty acids were quantified using a commercial method (Boehringer Mannheim) adapted for micro analyses (Cobas Mira, Roche Diagnostics), with palmitic acid standards. Triacyl glycerol levels were quantified in the total lipid fraction (Pointe Scientific) with a glycerol standard.
Total lipid was extracted and quantitated. Results are shown in FIGS. 18A NEFA and 18B triglyceride.

[4] = rats fed diet high in olive oil

rat CGRP-1
free fatty acid adrenic C22:4 (soleus muscle [1]; rats fed diet high in corn oil): 0.04 ± 0.002 nmol/g wwt | free fatty acid arachidic C20:0 (soleus muscle [1]; rats fed diet high in corn oil): 0.03 ± 0.005 nmol/g wwt | free fatty acid arachidonic C20:4 (soleus muscle [1]; rats fed diet high in corn oil): 0.02 ± 0.002 nmol/g wwt | free fatty acid cervonic C22:6 (soleus muscle [1]; rats fed diet high in corn oil): 0.03 ± 0.003 nmol/g wwt | free fatty acid linoleic C18:2 (soleus muscle [1]; rats fed diet high in corn oil): 0.18 ± 0.008 nmol/g wwt | free fatty acid linolenic C18:3 (soleus muscle [1]; rats fed diet high in corn oil): 0.17 ± 0.01 nmol/g wwt | free fatty acid margaric C17:0 (soleus muscle [1]; rats fed diet high in corn oil): 0.02 ± 0.003 nmol/g wwt | free fatty acid myristic C14:0 (soleus muscle [1]; rats fed diet high in corn oil): 0.03 ± 0.02 nmol/g wwt | free fatty acid oleic C18:1 (soleus muscle [1]; rats fed diet high in corn oil): 0.16 ± 0.01 nmol/g wwt | free fatty acid palmitic C16:0 (soleus muscle [1]; rats fed diet high in corn oil): 0.16 ± 0.03 nmol/g wwt | free fatty acid palmitoleic (n-7) C16:1 (soleus muscle [1]; rats fed diet high in corn oil): 0.01 ± 0.0008 nmol/g wwt | free fatty acid palmitoleic (n-9) C16:1 (soleus muscle [1]; rats fed diet high in corn oil): 0.20 ± 0.008 nmol/g wwt | free fatty acid pentadecanoic C15:0 (soleus muscle [1]; rats fed diet high in corn oil): 0.04 ± 003 nmol/g wwt | free fatty acid stearic C18:0 (soleus muscle [1]; rats fed diet high in corn oil): 0.39 ± 0.02 nmol/g wwt | free fatty acid timnodonic C20:5 (soleus muscle [1]; rats fed diet high in corn oil): 0.04 ± 0.001 nmol/g wwt | free fatty acid vaccenic C18:1 (soleus muscle [1]; rats fed diet high in corn oil): 0.02 ± 0.004 nmol/g wwt | free fatty acid adrenic C22:4 (soleus muscle [1]; rats fed diet high in lard): 0.04 ± 0.005 nmol/g wwt | free fatty acid arachidic C20:0 (soleus muscle [1]; rats fed diet high in lard): 0.07 ± 0.004 nmol/g wwt | free fatty acid arachidonic C20:4 (soleus muscle [1]; rats fed diet high in lard): 0.02 ± 0.001 nmol/g wwt | free fatty acid cervonic C22:6 (soleus muscle [1]; rats fed diet high in lard): 0.015 ± 0.002 nmol/g wwt | free fatty acid linoleic C18:2 (soleus muscle [1]; rats fed diet high in lard): 0.23 ± 0.005 nmol/g wwt | free fatty acid margaric C17:0 (soleus muscle [1]; rats fed diet high in lard): 0.09 ± 0.01 nmol/g wwt | free fatty acid myristic C14:0 (soleus muscle [1]; rats fed diet high in lard): 0.03 ± 0.007 nmol/g wwt | free fatty acid oleic C18:1 (soleus muscle [1]; rats fed diet high in lard): 0.25 ± 0.02 nmol/g wwt | free fatty acid palmitic C16:0 (soleus muscle [1]; rats fed diet high in lard): 0.24 ± 0.01 nmol/g wwt | free fatty acid palmitoleic (n-7) C16:1 (soleus muscle [1]; rats fed diet high in lard): 0.02 ± 0.005 nmol/g wwt | free fatty acid palmitoleic (n-9) C16:1 (soleus muscle [1]; rats fed diet high in lard): 0.03 ± 0.003 nmol/g wwt | free fatty acid pentadecanoic C15:0 (soleus muscle [1]; rats fed diet high in lard): 0.14 ± 0.01 nmol/g wwt | free fatty acid stearic C18:0 (soleus muscle [1]; rats fed diet high in lard): 0.35 ± 0.06 nmol/g wwt | free fatty acid timnodonic C20:5 (soleus muscle [1]; rats fed diet high in lard): 0.02 ± 0.002 nmol/g wwt | free fatty acid vaccenic C18:1 (soleus muscle [1]; rats fed diet high in lard): 0.03 ± 0.006 nmol/g wwt | free fatty acid adrenic C22:4 (soleus muscle [1]; [4]): 0.03 ± 0.006 nmol/g wwt | free fatty acid arachidic C20:0 (soleus muscle [1]; [4]): 0.04 ± 0.001 nmol/g wwt | free fatty acid arachidonic C20:4 (soleus muscle [1]; [4]): 0.02 ± 0.007 nmol/g wwt | free fatty acid cervonic C22:6 (soleus muscle [1]; [4]): 0.11 ± 0.03 nmol/g wwt | free fatty acid linoleic C18:2 (soleus muscle [1]; [4]): 0.06 ± 0.01 nmol/g wwt | free fatty acid linolenic C18:3 (soleus muscle [1]; [4]): 0.03 ± 0.0009 nmol/g wwt | free fatty acid margaric C17:0 (soleus muscle [1]; [4]): 0.03 ± 0.012 nmol/g wwt | free fatty acid myristic C14:0 (soleus muscle [1]; [4]): 0.015 ± 0.0009 nmol/g wwt | free fatty acid oleic C18:1 (soleus muscle [1]; [4]): 0.34 ± 0.01 nmol/g wwt | free fatty acid palmitic C16:0 (soleus muscle [1]; [4]): 0.20 ± 0.006 nmol/g wwt | free fatty acid palmitoleic (n-7) C16:1 (soleus muscle [1]; [4]): 0.02 ± 0.002 nmol/g wwt | free fatty acid palmitoleic (n-9) C16:1 (soleus muscle [1]; [4]): 0.27 ± 0.013 nmol/g wwt | free fatty acid pentadecanoic C15:0 (soleus muscle [1]; [4]): 0.08 ± 002 nmol/g wwt | free fatty acid stearic C18:0 (soleus muscle [1]; [4]): 0.12 ± 0.004 nmol/g wwt | free fatty acid timnodonic C20:5 (soleus muscle [1]; [4]): 0.01 ± 0.001 nmol/g wwt | free fatty acid vaccenic C18:1 (soleus muscle [1]; [4]): 0.17 ± 0.008 nmol/g wwt | soleus muscle free fatty acid concentration, agonist alone (soleus muscle [2]; 1 pM CGRP, 1 h (FIG. 3C)): 166 ± 18 nmol/g | soleus muscle free fatty acid content, agonist alone (soleus muscle [2]; 100 nM, 1 h, normal-fed rats (FIG. 3A, 3B)): 334 ± 52 nmol/g | triacylglycerol (triglyceride) content (soleus muscle [2]; soleus, normally fed rats, 60-min, 100 nM amylin or CGRP-1, 4.4 μM norepinephrine, control 1.17±0.15, not significant): 1.9 ± 0.23 µmol/g | intramuscular glycerol content (soleus muscle [2]; soleus, normally fed rats, 1 h, 100 nM amylin or CGRP-1, 4.4 μM norepinephrine, control 0.07±0.007): 0.04 ± 0.008 nmol/g | soleus muscle triglyceride content (soleus muscle [3]; diet with 40% added lard, 100 nM amylin or CGRP-1, 4.4 μM norepinephrine, control 1.14±0.16): 0.75 ± 0.08 µmol/g | soleus muscle free fatty acid content (soleus muscle [3]; diet with 40% added lard, 100 nM amylin or CGRP-1, 4.4 μM norepinephrine, control 43±8): 64 ± 7 nmol/g | soleus muscle triglyceride content (soleus muscle [3]; diet with 40% corn oil, 100 nM, control 0.89±0.06 μmol/g): 0.48±0.06 [mol/g | soleus muscle free fatty acid content (soleus muscle [3]; diet with 40% corn oil, 100 nM, control 35±4): 99 ± 17 nmol/g | soleus muscle triglyceride content (soleus muscle [3]; diet with 40% olive oil, 100 nM, control 0.83±0.1): 0.52 ± 0.08 µmol/g | soleus muscle free fatty acid content (soleus muscle [3]; diet with 40% olive oil, 100 nM, control 15±3): 55 ± 14 nmol/g
